Test results taken from US20250049891A1, “NOVEL PEPTIDE DERIVATIVE DERIVED FROM ADIPONECTIN AND USE THEREOF” (SEOUL NATIONAL UNIVERSITY HOSPITAL, priority 2021, published 2025).
In brackets after ≈: the same amount, converted by molar mass. Peptide text beside a SMILES is read from it.

Experiments:
in vitro [1] = conditions: human, microsomes, pH 7.4
Protocol: (§2) Three types of liver microsomes (Human, Rat, Mouse, 0.5 mg/ml), a 0.1 M phosphate buffer solution (pH 7.4), and the peptide derivative of the present disclosure were added at a concentration of 1 μM and pre-cultured at 37° C. for 5 minutes, and then added with an NADPH Regeneration system solution and cultured at 37° C. for 30 minutes. Thereafter, to terminate the reaction, the mixture was added with an acetonitrile solution containing an internal standard material (chlorpropamide), centrifuged for 5 minutes (14,000 rpm, 4° C.), and then the supernatant was injected into the LC-MS/MS system to analyze a substrate drug, and thus metabolic stability was evaluated.
The HPLC column was used with a Kinetex C18 column (2.1×100 mm, 1.7 μm particle size; Phenomenex, USA), and the mobile phase was distilled water (A) containing 0.1% formic acid and acetonitrile (B) containing 0.1% formic acid. TurboSpray Ionization was used as an ion source for MS/MS, and a triple quadruple type was used as a mass spectrometer. The produced metabolites were quantified using a multiple reaction monitoring (MRM) quantitative mode, and data analysis was performed using Analyst software (version 1.6.1).

[2] = Metabolic stability test, mouse liver microsomes; format: in vitro ADME; conditions: pH 7.4, mouse liver microsomes 0.5 mg/ml, NADPH, 37° C., 30 m
Protocol: as §2
(§3) The amount of substrate remaining through the reaction was analyzed by LC-MS/MS using Agilent 1290 infinity series pump system (Agilent, USA) and Triple Quad 5500 LC-MS/MS system (Applied Biosystems, USA). The HPLC column was used with a Kinetex C18 column (2.1×100 mm, 1.7 μm particle size; Phenomenex, USA), and the mobile phase was distilled water (A) containing 0.1% formic acid and acetonitrile (B) containing 0.1% formic acid. TurboSpray Ionization was used as an ion source for MS/MS, and a triple quadruple type was used as a mass spectrometer. The produced metabolites were quantified using a multiple reaction monitoring (MRM) quantitative mode, and data analysis was performed using Analyst software (version 1.6.1).

in vitro [3] = conditions: human, plasma
Protocol: (§4) The peptide derivative of the present disclosure was added at a concentration of 1 μM to two types of plasma (human, rat), placed in each tube, and then cultured at 37° C. for time of 0, 30, 60, 120, and 240 minutes. The tube containing plasma was taken out every time, added with an acetonitrile solution containing an internal standard material (chlorpropamide), vortexed for 5 minutes, and centrifuged for 5 minutes (14,000 rpm, 4° C.). Thereafter, the plasma stability of the peptide derivative was evaluated by injecting the supernatant into an LC-MS/MS system and analyzing the drug at each time period. At this time, Procaine and Enalapril were used as reference materials for accuracy during a general plasma stability test.
(§5) After the reaction, the amount of drug remaining in each tube was analyzed by LC-MS/MS using Shimadzu Nexera XR system and TSQ vantage (Thermo). The HPLC column was used with a Luna C18 column (2.0×50 mm, 3 μm particle size; Phenomenex, US), and the mobile phase was distilled water (A) containing 0.1% formic acid and acetonitrile (B) containing 0.1% formic acid. Data analysis was performed using Xcalibur (version 1.6.1). In the result analysis, the plasma stability of each peptide derivative was expressed as % remaining for each time period for the sample without culture.

CYP1A2 = target: T1, CYP1A2 (Homo sapiens, UniProt P05177); conditions: microsomes, 10 µM
T1 sequence (P05177 1-516): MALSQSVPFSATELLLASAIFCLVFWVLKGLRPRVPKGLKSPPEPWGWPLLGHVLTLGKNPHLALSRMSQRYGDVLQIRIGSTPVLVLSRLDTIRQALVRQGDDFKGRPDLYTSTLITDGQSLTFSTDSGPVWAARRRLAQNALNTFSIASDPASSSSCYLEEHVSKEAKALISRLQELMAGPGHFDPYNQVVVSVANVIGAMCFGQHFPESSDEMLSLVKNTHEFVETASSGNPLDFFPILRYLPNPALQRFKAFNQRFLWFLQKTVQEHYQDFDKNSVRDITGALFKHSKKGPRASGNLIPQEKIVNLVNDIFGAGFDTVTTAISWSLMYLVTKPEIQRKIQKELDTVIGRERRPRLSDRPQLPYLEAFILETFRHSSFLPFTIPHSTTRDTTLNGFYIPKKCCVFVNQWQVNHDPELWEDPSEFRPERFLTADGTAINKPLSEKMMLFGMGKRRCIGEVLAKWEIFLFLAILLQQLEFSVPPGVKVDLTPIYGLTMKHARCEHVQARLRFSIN
Protocol: (§1) Metabolites of each CYP isoenzyme indicator drug produced through the reaction were analyzed by LC-MS/MS using the Shimadzu Nexera XR system and TSQ vantage (Thermo).

CYP2C9 = CYP2C9 (Homo sapiens, UniProt P11712); conditions: microsomes, 10 µM
Protocol: as §1

CYP2D6 = CYP2D6 (Homo sapiens, UniProt P10635); conditions: microsomes, 10 µM
Protocol: as §1

CYP3A4 = CYP3A4 (Homo sapiens, UniProt P08684); conditions: microsomes, 10 µM
Protocol: as §1

CYP2C19 = CYP2C19 (Homo sapiens, UniProt P33261); conditions: microsomes, 10 µM
Protocol: as §1

[4] = Metabolic stability test, rat liver microsomes; format: in vitro ADME; conditions: pH 7.4, rat liver microsomes 0.5 mg/ml, NADPH, 37° C., 30 m
Protocol: as §2, §3

in vitro [5] = conditions: rat, plasma
Protocol: as §4, §5

[6] = Plasma stability test, human plasma; conditions: human plasma, 37° C.
Protocol: as §4, §5

[7] = Plasma stability test, rat plasma; conditions: rat plasma, 1 μM, 37° C.
Protocol: as §4, §5

physchem = conditions: pH 7.4, aqueous buffer, kinetic from dmso stock
Protocol: A PRISMA HT solution was diluted in distilled water at a ratio of 1:40, and then used as a test buffer by adjusting the pH to 7.4.
10 mL of the prepared test material was diluted in 190 μL of isopropyl alcohol and prepared. In addition, 75 mL of the test solution and 70 mL of isopropyl alcohol were mixed to be used as a blank sample, and 5 mL of the test material diluted in isopropyl alcohol was added to the blank sample. After the diluted sample was mixed, the absorbance was measured and used as an initial test value. […] Thereafter, the precipitate was removed from the sample using a filter plate, 74 mL of the filtered sample was added with 75 mL of isopropyl alcohol, and then the absorbance was measured and used as the sample value.
The solubility value of the test material was analyzed using a msol Explore (Solubility explorer program) after measuring the absorbance of each sample through a microplate reader. The average and standard deviation of the experimental values (n=3) repeated three times were calculated using the Excel program.

AMPK phosphorylation = AMPK phosphorylation activity in mouse adipocytes (Western blot); format: cell-based; conditions: 3T3-L1, 10 μM, 24 hours; APN5 = 1.0
Protocol: There were confirmed effects of the peptide derivatives of the present disclosure on the expression and receptor activity of adiponectin in mouse adipocytes as a main adiponectin production site. A mouse adipocyte cell line 3T3-L1 was treated with each of the peptide derivatives of the present disclosure at a concentration of 10 μM and cultured for 24 hours, and then cells were obtained. Thereafter, the proteins were extracted and the effect on AMPK phosphorylation, which was responsible for the main downstream signaling of adiponectin, was confirmed by Western blot.

CYP3A4, sequence (P08684 whole entry): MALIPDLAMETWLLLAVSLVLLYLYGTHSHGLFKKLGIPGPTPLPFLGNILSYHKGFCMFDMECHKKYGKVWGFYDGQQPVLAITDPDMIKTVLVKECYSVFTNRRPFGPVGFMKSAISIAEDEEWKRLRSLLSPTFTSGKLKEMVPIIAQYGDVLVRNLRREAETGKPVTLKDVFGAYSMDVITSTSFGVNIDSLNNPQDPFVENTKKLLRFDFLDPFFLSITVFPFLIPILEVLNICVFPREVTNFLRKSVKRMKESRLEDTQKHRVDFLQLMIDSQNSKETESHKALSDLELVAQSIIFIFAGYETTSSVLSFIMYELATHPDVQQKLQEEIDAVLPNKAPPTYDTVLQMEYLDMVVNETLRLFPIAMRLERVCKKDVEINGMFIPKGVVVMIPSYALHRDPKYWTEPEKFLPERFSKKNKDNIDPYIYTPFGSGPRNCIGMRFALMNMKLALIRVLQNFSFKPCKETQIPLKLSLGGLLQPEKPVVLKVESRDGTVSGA
CYP2D6, sequence (P10635 whole entry): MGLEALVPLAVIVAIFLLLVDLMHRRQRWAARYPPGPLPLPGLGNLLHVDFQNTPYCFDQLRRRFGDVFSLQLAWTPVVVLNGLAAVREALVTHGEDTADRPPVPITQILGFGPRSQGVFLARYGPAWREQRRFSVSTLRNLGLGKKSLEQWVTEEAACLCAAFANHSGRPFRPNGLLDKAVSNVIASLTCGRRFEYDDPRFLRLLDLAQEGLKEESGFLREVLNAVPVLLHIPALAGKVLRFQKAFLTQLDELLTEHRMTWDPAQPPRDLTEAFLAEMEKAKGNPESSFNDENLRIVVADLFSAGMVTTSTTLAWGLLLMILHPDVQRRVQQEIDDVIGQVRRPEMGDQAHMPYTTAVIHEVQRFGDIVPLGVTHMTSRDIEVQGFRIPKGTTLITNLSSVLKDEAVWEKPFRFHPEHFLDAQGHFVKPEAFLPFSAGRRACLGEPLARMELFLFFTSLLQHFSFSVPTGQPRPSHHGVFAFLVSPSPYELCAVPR
CYP2C9, sequence (P11712 whole entry): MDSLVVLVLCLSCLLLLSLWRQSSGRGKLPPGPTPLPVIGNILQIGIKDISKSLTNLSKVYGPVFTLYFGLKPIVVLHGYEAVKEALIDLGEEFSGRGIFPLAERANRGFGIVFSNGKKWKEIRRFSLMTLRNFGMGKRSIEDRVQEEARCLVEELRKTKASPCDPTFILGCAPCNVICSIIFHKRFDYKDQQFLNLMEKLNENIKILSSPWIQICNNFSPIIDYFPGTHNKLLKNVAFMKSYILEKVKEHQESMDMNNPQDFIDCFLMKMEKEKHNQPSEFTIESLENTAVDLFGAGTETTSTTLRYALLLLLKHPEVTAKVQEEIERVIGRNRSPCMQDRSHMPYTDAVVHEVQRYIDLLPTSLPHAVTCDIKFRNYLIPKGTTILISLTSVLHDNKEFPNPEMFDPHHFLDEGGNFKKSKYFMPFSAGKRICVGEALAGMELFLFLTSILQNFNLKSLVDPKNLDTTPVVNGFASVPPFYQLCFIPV
CYP2C19, sequence (P33261 whole entry): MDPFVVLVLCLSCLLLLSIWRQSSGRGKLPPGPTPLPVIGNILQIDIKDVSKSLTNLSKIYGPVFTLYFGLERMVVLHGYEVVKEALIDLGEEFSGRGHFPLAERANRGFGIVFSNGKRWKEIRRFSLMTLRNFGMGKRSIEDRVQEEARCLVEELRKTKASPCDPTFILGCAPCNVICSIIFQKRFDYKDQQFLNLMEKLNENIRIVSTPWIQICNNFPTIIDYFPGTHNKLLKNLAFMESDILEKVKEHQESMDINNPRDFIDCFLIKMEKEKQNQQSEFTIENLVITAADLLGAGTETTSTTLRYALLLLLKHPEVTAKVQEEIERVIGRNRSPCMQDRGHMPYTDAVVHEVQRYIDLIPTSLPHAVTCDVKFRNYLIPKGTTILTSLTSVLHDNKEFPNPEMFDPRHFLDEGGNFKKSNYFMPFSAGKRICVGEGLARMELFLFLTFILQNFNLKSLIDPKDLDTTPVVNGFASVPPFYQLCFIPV

remaining at 0.5 h, 1 μM (in vitro [1]) [%] | remaining at 0.5 h, 1 μM [2] [%] | remaining at 0.5 h, 1 μM (in vitro [3]) [%] | remaining at 2 h, 1 μM (in vitro [3]) [%] | CYP inhibition (% of control activity) CYP1A2 (CYP1A2) | CYP inhibition (% of control activity) CYP2C9 (CYP2C9) | CYP inhibition (% of control activity) CYP2D6 (CYP2D6) | CYP inhibition (% of control activity) CYP3A4 (CYP3A4) | CYP inhibition (% of control activity) CYP2C19 (CYP2C19) | remaining at 0.5 h, 1 μM [4] [%] | remaining at 0.5 h, 1 μM (in vitro [5]) [%] | remaining at 2 h, 1 μM (in vitro [5]) [%] | Compound | AMPK phosphorylation activity (fold change) (AMPK phosphorylation) | also measured
> 100 | 99.2 | 2.9 | < 1 | 77.7 % of control activity | 93.6 % of control activity | 97.4 % of control activity | >100 % of control activity | 4.1 % of control activity | 95.8 | 99.4 | 89.4 | NCCCCC(NC(=O)C(Cc1ccc(O)cc1)NC(=O)C(Cc1ccc(O)cc1)NC(=O)C(CC(=O)O)NC(=O)CN)C(N)=O (stereo not shown) [DS-35, NH2-GDYYK-NH2] (H-GDYYK-NH2; configuration not given here) | – | –
– | – | – | – | – | – | – | – | – | – | – | – | CCN(CC)CCOC(=O)c1ccc(N)cc1 [Procaine] | – | Plasma stability (% remaining) Human, 30 m column, marked (5 min) ([6]; cell marked (5 min)): 2.8 % remaining; Plasma stability (% remaining) Human, 120 m column, marked (5 min) ([6]; cell marked (5 min)): <1 % remaining; Plasma stability (% remaining) Rat, 30 m [7]: 90.3 % remaining; Plasma stability (% remaining) Rat, 120 m [7]: 57.4 % remaining
53.9 | 10.6 | 2.8 | < 1 | 80.5 % of control activity | 100.0 % of control activity | 91.6 % of control activity | 9.2 % of control activity | 73.5 % of control activity | 41.1 | 70.9 | 29.4 | CC(C)CC(NC(=O)CN)C(=O)N(C)C(Cc1ccc(O)cc1)C(=O)NC(Cc1ccc(O)cc1)C(=O)NC(Cc1ccccc1)C(N)=O (stereo not shown) [DS-56, NH2-GLY(N-Me)YF-NH2] | – | –
– | – | – | – | – | – | – | – | – | – | – | – | NC(CC(=O)O)C(=O)NC(Cc1ccc(O)cc1)C(=O)NC(Cc1ccc(O)cc1)C(=O)NC(Cc1ccccc1)C(=O)O (stereo not shown) [DS-27, NH2-DYYF-OH] (H-DYYF-OH; configuration not given here) | 1.3 | solubility at 24 h (physchem): 300 µg/mL (≈ 495 µM)
– | – | – | – | – | – | – | – | – | – | – | – | NC(=O)C(Cc1ccccc1)NC(=O)C(Cc1ccc(O)cc1)NC(=O)C(Cc1ccc(O)cc1)NC(=O)C(N)CC(=O)O (stereo not shown) [DS-29, NH2-DYYF-NH2] (H-DYYF-NH2; configuration not given here) | 1.2 | solubility at 24 h (physchem): 300 µg/mL (≈ 495 µM)
– | – | – | – | – | – | – | – | – | – | – | – | CCOC(=O)[C@H](CCc1ccccc1)N[C@@H](C)C(=O)N1CCC[C@H]1C(=O)O [Enalapril] | – | Plasma stability (% remaining) Human, 30 m ([6]; 1 μM, 30 m): >100 % remaining; Plasma stability (% remaining) Human, 120 m ([6]; 1 μM, 120 m): 197.4 % remaining; Plasma stability (% remaining) Rat, 30 m [7]: 27.9 % remaining; Plasma stability (% remaining) Rat, 120 m [7]: <1 % remaining
– | – | – | – | 97.2 % of control activity | >100 % of control activity | – | – | >100 % of control activity | – | – | – | CC(=O)N1CCN(c2ccc(OCC3COC(Cn4ccnc4)(c4ccc(Cl)cc4Cl)O3)cc2)CC1 (stereo not shown) [Ketoconazole, reference compound] | – | –
– | – | – | – | – | – | – | – | – | – | – | – | NCC(=O)NC(CC(N)=O)C(=O)NC(Cc1ccc(O)cc1)C(=O)NC(Cc1ccc(O)cc1)C(=O)NC(Cc1ccccc1)C(=O)O (stereo not shown) [DS-9, NH2-GNYYF-OH] (H-GNYYF-OH; configuration not given here) | 1.6 | –
93.9 | 83.6 | 39.8 | 3.3 | 95.1 % of control activity | >100 % of control activity | >100 % of control activity | >100 % of control activity | 100 % of control activity | 78.2 | > 100 | 96 | Ac-GDYYF-NH2 [DS-8, AcNH-GDYYF-NH2] | – | –
